# The source made the active and inactive calls.
# Tests used:
# cells = format: functional, cell-based
# J774.A1 = experiment: Confirmation of image-based Screening Assay for Inhibitors of Phagocytosis. [Related pubchem assays (depositor defined):AID1029, AID1643]; format: functional, cell-based; conditions: Mus musculus
# [1] = inhibitors of SNCA 5'UTR-driven reporter translation, confirmation, H4 neuroglioma cells, luminescence (AID 1988); format: functional, cell-based
# [2] = inhibitors of firefly luciferase expression or activity, dose response, H4 neuroglioma cells, luminescence (AID 1990); format: functional, cell-based
# [3] = cytotoxicity in HEK-293T cells, dose response, cytotoxicity control for TCR NF-kB inhibitor project, luminescence, T-cell screen hits (AID 489026); format: functional, cell-based;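 also: cells exposed to compound about 14 hours before the viability readout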
# [4] = inhibitors of SNCA 5'UTR-driven translation, confirmation, luminescence, H4 neuroglioblastoma cells, dose confirmation (AID 2454); format: functional, cell-based;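 also: H4 neuroglioblastoma cells carrying an alpha-synuclein 5'UTR luciferase reporter; potency for inhibition of the luciferase signal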
# [5] = cytotoxicity in HPDE-C7 cells, cell-based, fluorescence, HTS (AID 430); format: functional; conditions: Homo sapiens
# [6] = Luminescence Cell-Based Dose Response HTS to Identify Inhibitors of 5'UTR Stem-Loop Driven Prion Protein mRNA Translation in H4 Neuroglioblastoma Cells. [Related pubchem assays: 1827 (Project Summary), 1813 (Primary HTS)]; format: functional
# [7] = luciferase reporter signal reduction – luminescence, H4-C neuroglioblastoma cells, dose response (AID 2458); format: functional, cell-based;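 also: H4 neuroglioblastoma cells stably carrying a luciferase reporter gene fusion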
# [8] = Artemis endonuclease inhibitor potency, dose response, biochemical, fluorescence intensity (AID 720701); format: functional;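 also: Artemis endonuclease enzyme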
# [9] = cytotoxicity in KRAS-transformed pancreatic duct cells, primary screen, cell-based, fluorescence, HTS (AID 431); format: functional; conditions: Homo sapiens;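 also: cell line used: HPDE-C7K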
# X-box-binding protein 1 = X-box-binding protein 1 (Homo sapiens, UniProt P17861); format: functional, Cricetulus griseus;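 also: confirmatory dose-response counter-screen serving a CHOP assay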
# Sequence of X-box-binding protein 1 (P17861 whole entry): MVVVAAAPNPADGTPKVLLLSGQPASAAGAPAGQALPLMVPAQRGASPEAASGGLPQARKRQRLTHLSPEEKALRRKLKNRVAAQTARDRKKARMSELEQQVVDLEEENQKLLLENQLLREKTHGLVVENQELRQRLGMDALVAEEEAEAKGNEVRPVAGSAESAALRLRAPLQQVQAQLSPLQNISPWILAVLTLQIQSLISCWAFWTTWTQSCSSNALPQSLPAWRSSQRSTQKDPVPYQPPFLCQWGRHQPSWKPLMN
# [10] = target: Metabotropic glutamate receptor 4 (Homo sapiens, UniProt Q14833); experiment: Modulation of the Metabotropic Glutamate Receptor mGluR4: Potency at human mGluR4. Modulation of intracellular Ca2+ using Fluo-4, AM, in CHO expressing recombinant receptor [Related pubchem assays (depositor defined):AID2437, AID2807]; format: functional, cell-based
# Sequence of Metabotropic glutamate receptor 4 (Homo sapiens, UniProt Q14833) (Q14833 whole entry): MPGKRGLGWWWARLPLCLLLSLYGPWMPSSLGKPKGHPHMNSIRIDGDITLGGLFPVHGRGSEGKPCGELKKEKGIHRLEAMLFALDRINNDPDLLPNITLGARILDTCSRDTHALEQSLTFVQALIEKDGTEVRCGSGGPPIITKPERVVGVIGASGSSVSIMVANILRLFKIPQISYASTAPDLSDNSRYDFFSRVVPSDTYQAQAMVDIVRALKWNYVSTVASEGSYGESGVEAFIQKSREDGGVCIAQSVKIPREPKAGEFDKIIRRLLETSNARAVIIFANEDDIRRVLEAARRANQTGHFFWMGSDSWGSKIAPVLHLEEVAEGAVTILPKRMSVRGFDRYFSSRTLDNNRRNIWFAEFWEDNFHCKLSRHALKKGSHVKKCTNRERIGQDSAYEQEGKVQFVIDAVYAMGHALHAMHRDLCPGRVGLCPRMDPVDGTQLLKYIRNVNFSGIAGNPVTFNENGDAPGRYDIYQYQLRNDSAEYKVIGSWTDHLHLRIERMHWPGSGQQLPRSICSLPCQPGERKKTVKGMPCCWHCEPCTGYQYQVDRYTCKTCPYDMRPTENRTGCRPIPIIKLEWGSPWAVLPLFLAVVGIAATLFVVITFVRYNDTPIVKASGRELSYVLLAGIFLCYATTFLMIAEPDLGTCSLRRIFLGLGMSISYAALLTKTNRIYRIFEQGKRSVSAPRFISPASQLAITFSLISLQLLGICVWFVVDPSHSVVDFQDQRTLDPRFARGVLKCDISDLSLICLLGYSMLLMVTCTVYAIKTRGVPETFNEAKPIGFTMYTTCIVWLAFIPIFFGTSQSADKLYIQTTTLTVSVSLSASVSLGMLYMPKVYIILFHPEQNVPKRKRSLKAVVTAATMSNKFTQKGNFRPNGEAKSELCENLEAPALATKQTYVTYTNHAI
# [11] = target: Metabotropic glutamate receptor 4 (Rattus norvegicus, UniProt P31423); experiment: Modulation of the Metabotropic Glutamate Receptor mGluR4: Rat PAM Potency. [Related pubchem assays (depositor defined):AID2437, AID2807]; format: functional
# Sequence of Metabotropic glutamate receptor 4 (Rattus norvegicus, UniProt P31423) (P31423 whole entry): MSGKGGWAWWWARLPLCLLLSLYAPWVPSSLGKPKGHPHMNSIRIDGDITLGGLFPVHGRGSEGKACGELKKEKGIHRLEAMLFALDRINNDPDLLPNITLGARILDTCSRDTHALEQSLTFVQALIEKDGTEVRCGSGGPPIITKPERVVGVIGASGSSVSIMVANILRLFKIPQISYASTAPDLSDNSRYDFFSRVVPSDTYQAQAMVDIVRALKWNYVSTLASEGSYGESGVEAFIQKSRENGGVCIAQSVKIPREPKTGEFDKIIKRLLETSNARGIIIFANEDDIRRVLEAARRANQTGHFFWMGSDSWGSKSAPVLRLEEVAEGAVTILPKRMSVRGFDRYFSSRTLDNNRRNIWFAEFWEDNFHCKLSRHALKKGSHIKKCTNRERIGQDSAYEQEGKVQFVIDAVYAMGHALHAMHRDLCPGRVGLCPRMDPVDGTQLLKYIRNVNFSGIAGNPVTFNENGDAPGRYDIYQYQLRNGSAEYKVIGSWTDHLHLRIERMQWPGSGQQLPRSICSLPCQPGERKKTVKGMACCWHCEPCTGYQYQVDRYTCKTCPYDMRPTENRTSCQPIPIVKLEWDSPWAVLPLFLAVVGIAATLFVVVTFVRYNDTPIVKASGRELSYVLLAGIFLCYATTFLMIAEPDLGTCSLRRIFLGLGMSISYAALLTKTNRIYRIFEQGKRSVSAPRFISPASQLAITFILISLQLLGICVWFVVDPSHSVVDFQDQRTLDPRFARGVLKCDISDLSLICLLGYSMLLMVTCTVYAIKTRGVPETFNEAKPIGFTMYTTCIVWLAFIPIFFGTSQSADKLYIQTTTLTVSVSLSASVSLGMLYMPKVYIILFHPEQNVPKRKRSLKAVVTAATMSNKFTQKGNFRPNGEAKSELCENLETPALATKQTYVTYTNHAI
# [12] = target: T1, Tyrosine-protein phosphatase non-receptor type 7 (Homo sapiens, UniProt P35236); experiment: redox-dependent HePTP inhibition, mechanism study, biochemical, fluorescence (AID 2068); format: functional
# T1 sequence (P35236 whole entry): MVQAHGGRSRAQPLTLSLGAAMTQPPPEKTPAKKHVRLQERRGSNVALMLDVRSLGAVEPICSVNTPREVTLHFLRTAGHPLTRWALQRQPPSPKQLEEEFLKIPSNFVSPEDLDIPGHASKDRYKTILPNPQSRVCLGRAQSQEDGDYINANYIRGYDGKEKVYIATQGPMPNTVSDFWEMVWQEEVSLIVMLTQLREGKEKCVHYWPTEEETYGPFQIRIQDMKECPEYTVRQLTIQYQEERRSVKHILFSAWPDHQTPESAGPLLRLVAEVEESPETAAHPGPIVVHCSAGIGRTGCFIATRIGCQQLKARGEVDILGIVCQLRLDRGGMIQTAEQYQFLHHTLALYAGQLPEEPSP
# [13] = target: T2, Dual specificity protein phosphatase 3 (Homo sapiens, UniProt P51452); experiment: SAR VHR1 absorbance Assay for In Vitro dose response studies. [Related pubchem assays (depositor defined):AID1654, AID1661, AID1878, AID1992, AID2004]
# T2 sequence (P51452 whole entry): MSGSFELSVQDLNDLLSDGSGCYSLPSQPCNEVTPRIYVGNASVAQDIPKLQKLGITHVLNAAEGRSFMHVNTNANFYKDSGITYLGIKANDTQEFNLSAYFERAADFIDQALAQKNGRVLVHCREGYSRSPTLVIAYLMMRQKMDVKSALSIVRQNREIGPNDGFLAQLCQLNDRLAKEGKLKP
# [14] = target: T2, Dual specificity protein phosphatase 3; experiment: SAR VHR1 Fluorescent Assay for In Vitro dose response studies. [Related pubchem assays (depositor defined):AID1654, AID1661, AID1878, AID1992, AID2004, AID2070, AID2085]; format: functional
# [15] = target: T3, Dual specificity protein phosphatase 6 (Rattus norvegicus, UniProt Q64346); format: functional;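 also: confirmatory in vitro dose-response testing of MKP-3 inhibition; recombinant His-tagged MKP-3 made in E. coli BL21 with OMFP substrate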
# T3 sequence (Q64346 whole entry): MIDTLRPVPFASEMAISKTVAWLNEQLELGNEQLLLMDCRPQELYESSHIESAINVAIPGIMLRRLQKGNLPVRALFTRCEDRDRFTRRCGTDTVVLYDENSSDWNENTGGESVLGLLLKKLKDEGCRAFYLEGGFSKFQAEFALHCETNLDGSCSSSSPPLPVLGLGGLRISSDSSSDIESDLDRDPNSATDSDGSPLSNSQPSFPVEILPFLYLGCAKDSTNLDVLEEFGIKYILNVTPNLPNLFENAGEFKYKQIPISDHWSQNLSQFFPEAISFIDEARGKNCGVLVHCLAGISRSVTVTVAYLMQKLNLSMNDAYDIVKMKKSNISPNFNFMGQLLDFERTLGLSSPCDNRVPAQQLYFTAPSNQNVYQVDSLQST
# Large T antigen = Large T antigen (Simian virus 40, UniProt P03070); format: functional, Betapolyomavirus macacae;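 also: Confirmatory-stage PubChem screen for compounds that inhibit SV40 T antigen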
# Sequence of Large T antigen (P03070 whole entry): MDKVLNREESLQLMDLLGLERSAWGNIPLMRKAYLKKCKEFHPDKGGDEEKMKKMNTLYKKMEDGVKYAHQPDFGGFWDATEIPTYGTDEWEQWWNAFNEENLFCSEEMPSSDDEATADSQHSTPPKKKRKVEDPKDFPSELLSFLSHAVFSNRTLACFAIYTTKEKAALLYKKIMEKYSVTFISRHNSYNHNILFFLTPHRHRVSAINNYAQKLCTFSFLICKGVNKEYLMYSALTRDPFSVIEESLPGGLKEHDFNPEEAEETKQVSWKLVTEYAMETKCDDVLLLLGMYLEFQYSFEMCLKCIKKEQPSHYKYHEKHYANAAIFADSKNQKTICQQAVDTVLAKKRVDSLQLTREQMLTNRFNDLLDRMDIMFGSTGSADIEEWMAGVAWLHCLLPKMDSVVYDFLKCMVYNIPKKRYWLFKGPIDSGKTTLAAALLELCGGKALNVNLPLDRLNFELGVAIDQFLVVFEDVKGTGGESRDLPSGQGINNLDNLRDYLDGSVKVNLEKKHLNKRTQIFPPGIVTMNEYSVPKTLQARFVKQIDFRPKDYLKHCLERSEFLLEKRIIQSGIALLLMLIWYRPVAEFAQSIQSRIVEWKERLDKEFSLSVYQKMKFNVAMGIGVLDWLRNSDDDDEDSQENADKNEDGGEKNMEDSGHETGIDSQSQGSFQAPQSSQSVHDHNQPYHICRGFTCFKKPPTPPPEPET
# [16] = inhibition of K1F phage lysis, E. coli UTI89, bacterial capsule biogenesis inhibitors, alamar blue (AID 488966); format: functional
smiles,measurement,setting,value
CCN(CC)c1ccc(-c2nn3c(-c4[nH]nc5c4CCC5)nnc3s2)cc1,EC50,cells,859 nM (active)
same,IC50,J774.A1,667 nM (active)
same,EC50,[1],< 100 nM (active)
same,EC50,[2],294 nM (active)
same,IC50,[3],61100 nM (inactive)
same,EC50,[4],972 nM (active)
same,EC50,[5],750 nM (active)
same,EC50,[6],377 nM (active)
same,EC50,[7],1210 nM (active)
same,IC50,[8],> 20000 nM (inactive)
same,EC50,[9],1060 nM (active)
Cc1ccc(-c2ccc(/C=C(\C#N)C(=O)Nc3cc(C)nn3-c3ccccc3)o2)cc1,Absolute IC50 (XBP1),X-box-binding protein 1,10000 nM
CC1(C)CC(=O)N(c2ccc(NC(=O)c3ccccn3)cc2Cl)C1=O,EC50,[10],1480 nM (active)
same,EC50,[11],2320 nM (active)
S=C(NCc1ccccc1)c1cn(CCOc2ccccc2)c2ccccc12,IC50,[12],> 100000 nM (inactive)
same,IC50,[13],> 100000 nM (inactive)
same,IC50,[14],> 100000 nM (inactive)
same,IC50,[15],> 100000 nM (inactive)
COc1ccc(NC2SC(=O)N(C)C2=O)cc1 (stereo not given),IC50,Large T antigen,80800 nM (active)
same,IC50,[16],> 300000 nM (active)
